Drawing on patent publication US11180483B2, “Substituted reverse pyrimidine Bmi-1 inhibitors” (PTC Therapeutics, Inc., priority 2012, dated 2021), this text covers EC50 for 26 compounds.

The experiment deals with Bmi-1. The experiment can be described thus: Sandwich ELISA Assay (Bmi-1 ELISA) in HT-1080 cells. It is filed as cell-based. In a few lines: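 Bmi-1 in lysates was measured by a three-antibody ELISA with TMB, OD450 minus OD570 reference, interpolated on a GST-tagged recombinant Bmi-1 standard curve, 0-8000 pg/mL. Lysates came from HT-1080 cells treated 40-48 h with compound, final DMSO 0.5%.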
In turn, `COc1ccc(Nc2nc(-n3c(C)nc4c(F)cc(F)cc43)nc(N)c2F)cc1` [Cpd 242, 2-(4,6-difluoro-2-methyl-1H-benzimidazol-1-yl)-5-fluoro-N-(4-methoxyphenyl)pyrimidine-4,6-diamine] yielded an EC50 of 0.001 to 0.01 µM.
Then `Nc1cc(Nc2ccc(OC(F)F)cc2)nc(-n2c(C3CC3)nc3ncc(F)cc32)n1` [Cpd 103, 2-(2-cyclopropyl-6-fluoro-1H-imidazo[4,5-b]pyridin-1-yl)-N-[4-(difluoromethoxy)phenyl]pyrimidine-4,6-diamine], with 0.01 to 0.1 µM.
Then `FC(F)Oc1ccc(Nc2ccnc(-c3c(C(F)(F)F)nc4ccc(Cl)cn34)n2)cc1` [Cpd 16, 2-[6-chloro-2-(trifluoromethyl)imidazo[1,2-a]pyridin-3-yl]-N-[4-(difluoromethoxy)phenyl]pyrimidin-4-amine], with 0.01 to 0.1 µM; and `COc1ccc(Nc2nc(-c3c(C)nn4ccccc34)nc(N)c2F)cc1` [Cpd 239, 5-fluoro-N-(4-methoxyphenyl)-2-(2-methylpyrazolo[1,5-a]pyridin-3-yl)pyrimidine-4,6-diamine], with 0.01 to 0.1 µM.
Then `CCc1nc2ccccc2n1-c1nc(N)cc(Nc2ccc(OC(F)F)c(F)c2)n1` [Cpd 157, N-[4-(difluoromethoxy)-3-fluorophenyl]-2-(2-ethyl-1H-benzimidazol-1-yl)pyrimidine-4,6-diamine], with 0.01 to 0.1 µM; and `Cc1nc2cc(F)ccc2n1-c1nc(N)c(F)c(Nc2ccc(OC(F)(F)F)cc2)n1` [Cpd 283, 5-fluoro-2-(5-fluoro-2-methyl-1H-benzimidazol-1-yl)-N-[4-(trifluoromethoxy)phenyl]pyrimidine-4,6-diamine], with 0.1 to 3 µM.
The compound `Nc1nc(-c2c(C(F)(F)F)nc3ccc(F)cn23)nc(Nc2ccc(C(F)(F)F)cc2)c1F` [Cpd 178, 5-fluoro-2-[6-fluoro-2-(trifluoromethyl)imidazo[1,2-a]pyridin-3-yl]-N-[4-(trifluoromethyl)phenyl]pyrimidine-4,6-diamine] yielded an EC50 of 0.1 to 3 µM.
Compound `Cc1nc2ccc(F)cc2n1-c1nc(N)c(F)c(Nc2ccc(OC(F)F)c(F)c2)n1` [Cpd 111, N-[4-(difluoromethoxy)-3-fluorophenyl]-5-fluoro-2-(6-fluoro-2-methyl-1H-benzimidazol-1-yl)pyrimidine-4,6-diamine] came in with an EC50 of 0.01 to 0.1 µM.
Then `Cc1nc2ccccc2n1-c1nc(N)cc(Nc2ccc(OC(F)F)cc2)n1` [Cpd 234, N-[4-(difluoromethoxy)phenyl]-2-(2-methyl-1H-benzimidazol-1-yl)pyrimidine-4,6-diamine], with 0.01 to 0.1 µM; and `Nc1nc(-n2c(C3CC3)nc3ccccc32)nc(Nc2ccc(C(F)(F)F)cc2)c1F` [Cpd 120, 2-(2-cyclopropyl-1H-benzimidazol-1-yl)-5-fluoro-N-[4-(trifluoromethyl)phenyl]pyrimidine-4,6-diamine], with 0.01 to 0.1 µM.
With `Cc1nc2ccccc2n1-c1nc(N)cc(Nc2ccc([N+](=O)[O-])cc2)n1` [Cpd 211, 2-(2-methyl-1H-benzimidazol-1-yl)-N-(4-nitrophenyl)pyrimidine-4,6-diamine], the EC50 was 0.1 to 3 µM.
Regarding `Cc1nc2cc(F)ccc2n1-c1nc(N)c(F)c(Nc2ccc(OC(F)F)c(F)c2)n1` [Cpd 112, N-[4-(difluoromethoxy)-3-fluorophenyl]-5-fluoro-2-(5-fluoro-2-methyl-1H-benzimidazol-1-yl)pyrimidine-4,6-diamine], the EC50 lay within 0.01 to 0.1 µM.
The value for `COCCNc1cc(Nc2ccc(C(F)(F)F)cc2)nc(-n2c(C)nc3ccccc32)n1` [Cpd 58, N^4-(2-methoxyethyl)-2-(2-methyl-1H-benzimidazol-1-yl)-N^6-[4-(trifluoromethyl)phenyl]pyrimidine-4,6-diamine] was 0.1 to 3 µM.
In turn, `CCc1nc2cc(F)ccc2n1-c1nc(N)c(F)c(Nc2ccc(OC(F)F)cc2)n1` [Cpd 163, N-[4-(difluoromethoxy)phenyl]-2-(2-ethyl-5-fluoro-1H-benzimidazol-1-yl)-5-fluoropyrimidine-4,6-diamine] came in with an EC50 of 0.01 to 0.1 µM.
For `Cc1ccc(Nc2nc(-n3c(C)nc4cc([N+](=O)[O-])ccc43)nc(N)c2F)cc1` [Cpd 254, 5-fluoro-2-(2-methyl-5-nitro-1H-benzimidazol-1-yl)-N-(4-methylphenyl)pyrimidine-4,6-diamine], the EC50 lay in the range of 0.01 to 0.1 µM.
As to `Cc1nc2ncc(Cl)cc2n1-c1nc(N)cc(Nc2ccc(C(F)(F)F)cc2)n1` [Cpd 104, 2-(6-chloro-2-methyl-1H-imidazo[4,5-b]pyridin-1-yl)-N-[4-(trifluoromethyl)phenyl]pyrimidine-4,6-diamine], the EC50 was in the range of 0.01 to 0.1 µM.
Then `Fc1ccc2nc(C(F)(F)F)c(-c3nccc(Nc4ccc(OC(F)F)cc4)n3)n2c1` [Cpd 55, N-[4-(difluoromethoxy)phenyl]-2-[6-fluoro-2-(trifluoromethyl)imidazo[1,2-a]pyridin-3-yl]pyrimidin-4-amine], with 0.1 to 3 µM.
As for `Cc1ccc(Nc2cc(N)nc(-n3c(C)nc4ccc(F)cc43)n2)cc1` [Cpd 264, 2-(6-fluoro-2-methyl-1H-benzimidazol-1-yl)-N-(4-methylphenyl)pyrimidine-4,6-diamine], the half-maximal effective concentration (EC50) is 0.001 to 0.01 µM.
The value for `COc1ccc(Nc2ccnc(-c3c(C(F)(F)F)nc4ccc(F)cn34)n2)cc1` [Cpd 22, 2-[6-fluoro-2-(trifluoromethyl)imidazo[1,2-a]pyridin-3-yl]-N-(4-methoxyphenyl)pyrimidin-4-amine] was 0.01 to 0.1 µM.
As for `Cc1nc2ccc(F)cc2n1-c1nc(N)c(F)c(Nc2ccc(OC(F)(F)F)cc2)n1` [Cpd 191, 5-fluoro-2-(6-fluoro-2-methyl-1H-benzimidazol-1-yl)-N-[4-(trifluoromethoxy)phenyl]pyrimidine-4,6-diamine], the EC50 was 0.01 to 0.1 µM.
`Cc1nc2cc(F)cc(F)c2n1-c1nc(N)c(F)c(Nc2ccc(C(F)(F)F)cc2)n1` [Cpd 243, 2-(5,7-difluoro-2-methyl-1H-benzimidazol-1-yl)-5-fluoro-N-[4-(trifluoromethyl)phenyl]pyrimidine-4,6-diamine]: the EC50 lay within 0.01 to 0.1 µM.
Regarding `CCc1nc2ccccc2n1-c1nc(N)c(F)c(Nc2ccc3c(c2)OCO3)n1` [Cpd 273, N-(1,3-benzodioxol-5-yl)-2-(2-ethyl-1H-benzimidazol-1-yl)-5-fluoropyrimidine-4,6-diamine], the EC50 fell in the range of 0.001 to 0.01 µM.
`COc1ccc(Nc2ccnc(-c3c(C(F)(F)F)nn4ccccc34)n2)cc1` [Cpd 60, N-(4-methoxyphenyl)-2-[2-(trifluoromethyl)pyrazolo[1,5-a]pyridin-3-yl]pyrimidin-4-amine] showed an EC50 of 0.01 to 0.1 µM.
`Cc1nc2ccccc2n1-c1nc(N)c(Cl)c(Nc2ccc(C(F)(F)F)cc2)n1` [Cpd 166, 5-chloro-2-(2-methyl-1H-benzimidazol-1-yl)-N-[4-(trifluoromethyl)phenyl]pyrimidine-4,6-diamine] displayed an EC50 of 0.1 to 3 µM.
The value for `Cc1nc2c(F)cc(F)cc2n1-c1nc(N)c(F)c(Nc2ccc(OC(F)F)c(F)c2)n1` [Cpd 128, N-[4-(difluoromethoxy)-3-fluorophenyl]-2-(4,6-difluoro-2-methyl-1H-benzimidazol-1-yl)-5-fluoropyrimidine-4,6-diamine] was 0.01 to 0.1 µM.
Then `FC(F)(F)c1ccc(Nc2ccnc(-c3c(C(F)(F)F)nn4ccccc34)n2)cc1` [Cpd 56, N-[4-(trifluoromethyl)phenyl]-2-[2-(trifluoromethyl)pyrazolo[1,5-a]pyridin-3-yl]pyrimidin-4-amine], with 0.1 to 3 µM.
